These are literature values, as cited in patent US20260000671A1, “CONCENTRATED SOLUTIONS COMPRISING 5,10-METHYLENE-(6R)-TETRAHYDROFOLIC ACID” (Merck Patent GMBH, priority 2022, published 2026).

For the compound `Nc1nc2c(c(=O)[nH]1)N1CN(c3ccc(C(=O)N[C@@H](CCC(=O)O)C(=O)O)cc3)C[C@H]1CN2` [5,10-methylene-(6R,S)-tetrahydrofolic acid], the “purity 24 hours following dissolution in water” value (24 hours following dissolution in water, % normalized purity) is 44.9 % of the starting purity. Moreover, the “stability profile in words” value (following dissolution in water, FIG. 1) is given as “degraded rapidly over time”. In addition, the “purity after 7 hours” value (re-constituted lyophilizate, after 7 hours) is given as 84%. Where the note is “re-constituted lyophilizate, linear regression of stability profile”, the “purity loss per hour (degradation rate, slope of best-fit line)” value is 2.3 % purity per hour.
